15 compounds from ChEMBL document CHEMBL5291721, “A preclinical secondary pharmacology resource illuminates target-adverse drug reaction associations of marketed drugs” (Nat Commun, 2023) can be followed below.

A word on the AC50: it is the midpoint of the concentration-response curve, whichever way the signal moves. A lower AC50 goes with activity at low concentration.

SMILES strings stand for the structures.

The target of experiment [1] is T1, Muscarinic acetylcholine receptor M2 (Homo sapiens, UniProt P08172).
T1 sequence (P08172 whole entry): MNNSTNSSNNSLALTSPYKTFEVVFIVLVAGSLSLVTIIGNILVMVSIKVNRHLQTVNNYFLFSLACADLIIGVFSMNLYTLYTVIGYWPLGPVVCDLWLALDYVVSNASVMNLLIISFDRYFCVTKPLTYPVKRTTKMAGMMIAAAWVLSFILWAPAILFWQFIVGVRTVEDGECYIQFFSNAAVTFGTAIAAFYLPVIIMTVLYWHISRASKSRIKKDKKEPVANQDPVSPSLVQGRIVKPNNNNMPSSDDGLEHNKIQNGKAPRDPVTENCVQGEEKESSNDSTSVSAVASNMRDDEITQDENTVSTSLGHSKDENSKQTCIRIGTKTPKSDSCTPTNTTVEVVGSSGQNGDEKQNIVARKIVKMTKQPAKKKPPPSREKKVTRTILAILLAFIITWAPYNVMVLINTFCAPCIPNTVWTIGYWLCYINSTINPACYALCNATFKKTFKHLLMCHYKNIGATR

Experiment [2] addresses D(1A) dopamine receptor (Homo sapiens, UniProt P21728).
The target of experiment [3] is Histamine H3 receptor (Homo sapiens, UniProt Q9Y5N1).
Histamine H3 receptor, sequence (Q9Y5N1 whole entry): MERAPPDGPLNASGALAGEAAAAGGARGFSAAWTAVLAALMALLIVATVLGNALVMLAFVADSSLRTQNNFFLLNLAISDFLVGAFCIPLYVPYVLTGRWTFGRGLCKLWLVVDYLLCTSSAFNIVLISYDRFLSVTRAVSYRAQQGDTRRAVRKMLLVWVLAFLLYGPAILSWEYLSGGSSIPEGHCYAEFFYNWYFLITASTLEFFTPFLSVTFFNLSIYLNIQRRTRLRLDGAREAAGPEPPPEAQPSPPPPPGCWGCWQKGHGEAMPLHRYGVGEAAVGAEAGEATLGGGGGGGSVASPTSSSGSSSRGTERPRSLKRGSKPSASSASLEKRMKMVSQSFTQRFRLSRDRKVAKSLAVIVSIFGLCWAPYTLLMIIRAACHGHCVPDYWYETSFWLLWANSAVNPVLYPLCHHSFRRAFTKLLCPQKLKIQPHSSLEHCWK
Experiment [4] addresses Mu-type opioid receptor (Homo sapiens, UniProt P35372).
Experiment [5] addresses 3',5'-cyclic-AMP phosphodiesterase 4A (Homo sapiens, UniProt P27815). The experiment is classed as functional.
The target in experiment [6] is T2, Progesterone receptor (Homo sapiens, UniProt P06401).
T2 sequence (P06401 whole entry): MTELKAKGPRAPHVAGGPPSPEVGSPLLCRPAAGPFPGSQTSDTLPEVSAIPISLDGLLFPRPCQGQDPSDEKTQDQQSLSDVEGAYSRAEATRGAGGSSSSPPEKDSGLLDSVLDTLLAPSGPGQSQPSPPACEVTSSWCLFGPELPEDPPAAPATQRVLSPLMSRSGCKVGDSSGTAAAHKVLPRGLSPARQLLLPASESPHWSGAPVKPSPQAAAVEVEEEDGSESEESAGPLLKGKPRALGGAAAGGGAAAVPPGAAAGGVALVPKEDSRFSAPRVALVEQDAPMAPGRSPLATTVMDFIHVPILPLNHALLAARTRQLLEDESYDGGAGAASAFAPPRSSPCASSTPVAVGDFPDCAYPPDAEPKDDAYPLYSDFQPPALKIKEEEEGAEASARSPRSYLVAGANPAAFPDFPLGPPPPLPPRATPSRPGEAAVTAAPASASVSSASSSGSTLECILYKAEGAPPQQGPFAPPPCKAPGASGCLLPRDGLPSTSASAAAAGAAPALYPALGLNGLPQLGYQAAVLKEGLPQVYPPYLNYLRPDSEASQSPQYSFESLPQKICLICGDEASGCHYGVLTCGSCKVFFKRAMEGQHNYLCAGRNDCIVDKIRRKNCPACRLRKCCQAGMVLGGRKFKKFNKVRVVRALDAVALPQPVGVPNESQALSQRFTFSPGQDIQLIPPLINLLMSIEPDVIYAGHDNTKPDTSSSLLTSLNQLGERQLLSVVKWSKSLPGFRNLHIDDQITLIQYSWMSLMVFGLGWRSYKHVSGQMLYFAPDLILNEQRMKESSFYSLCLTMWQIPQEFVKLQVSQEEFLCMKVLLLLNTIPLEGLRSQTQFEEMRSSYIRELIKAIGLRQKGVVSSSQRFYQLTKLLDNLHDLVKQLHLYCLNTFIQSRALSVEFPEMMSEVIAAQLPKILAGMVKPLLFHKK

Experiment [7] addresses Prostaglandin G/H synthase 1 (Homo sapiens, UniProt P23219). The class given is functional.
The target in experiment [8] is T3, Thromboxane A2 receptor (Homo sapiens, UniProt P21731).
T3 sequence (P21731 whole entry): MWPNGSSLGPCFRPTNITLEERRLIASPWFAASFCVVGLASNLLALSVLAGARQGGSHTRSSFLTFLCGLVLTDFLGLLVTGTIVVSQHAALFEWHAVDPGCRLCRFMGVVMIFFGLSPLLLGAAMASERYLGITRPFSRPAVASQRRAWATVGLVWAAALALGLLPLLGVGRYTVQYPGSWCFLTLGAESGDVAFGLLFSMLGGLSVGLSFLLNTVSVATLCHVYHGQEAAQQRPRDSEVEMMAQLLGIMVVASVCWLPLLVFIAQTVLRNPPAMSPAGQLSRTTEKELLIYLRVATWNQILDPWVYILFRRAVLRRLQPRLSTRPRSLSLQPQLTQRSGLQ
The class given is functional, cell-based.

Experiment [9] addresses T4, Alpha-1A adrenergic receptor (Homo sapiens, UniProt P35348).
T4 sequence (P35348 whole entry): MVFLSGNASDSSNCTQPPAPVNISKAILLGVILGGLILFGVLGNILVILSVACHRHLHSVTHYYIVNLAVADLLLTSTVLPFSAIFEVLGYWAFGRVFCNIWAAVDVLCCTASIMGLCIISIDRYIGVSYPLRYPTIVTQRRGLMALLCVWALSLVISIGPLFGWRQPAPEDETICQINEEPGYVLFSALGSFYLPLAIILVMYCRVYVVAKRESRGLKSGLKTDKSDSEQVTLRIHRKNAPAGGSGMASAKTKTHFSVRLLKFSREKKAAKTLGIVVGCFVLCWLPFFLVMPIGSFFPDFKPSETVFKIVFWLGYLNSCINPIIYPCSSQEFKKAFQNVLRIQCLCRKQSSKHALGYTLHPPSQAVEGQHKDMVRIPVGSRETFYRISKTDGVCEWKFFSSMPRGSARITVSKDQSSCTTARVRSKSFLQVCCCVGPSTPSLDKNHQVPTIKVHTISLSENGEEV
The class given is functional, cell-based.

Experiment [10] deals with T4, Alpha-1A adrenergic receptor. The experiment is classed as functional, cell-based. The source holds these as a separate data set.
Note: assay procedure not described here.

3',5'-cyclic-AMP phosphodiesterase 4A, sequence (P27815 whole entry): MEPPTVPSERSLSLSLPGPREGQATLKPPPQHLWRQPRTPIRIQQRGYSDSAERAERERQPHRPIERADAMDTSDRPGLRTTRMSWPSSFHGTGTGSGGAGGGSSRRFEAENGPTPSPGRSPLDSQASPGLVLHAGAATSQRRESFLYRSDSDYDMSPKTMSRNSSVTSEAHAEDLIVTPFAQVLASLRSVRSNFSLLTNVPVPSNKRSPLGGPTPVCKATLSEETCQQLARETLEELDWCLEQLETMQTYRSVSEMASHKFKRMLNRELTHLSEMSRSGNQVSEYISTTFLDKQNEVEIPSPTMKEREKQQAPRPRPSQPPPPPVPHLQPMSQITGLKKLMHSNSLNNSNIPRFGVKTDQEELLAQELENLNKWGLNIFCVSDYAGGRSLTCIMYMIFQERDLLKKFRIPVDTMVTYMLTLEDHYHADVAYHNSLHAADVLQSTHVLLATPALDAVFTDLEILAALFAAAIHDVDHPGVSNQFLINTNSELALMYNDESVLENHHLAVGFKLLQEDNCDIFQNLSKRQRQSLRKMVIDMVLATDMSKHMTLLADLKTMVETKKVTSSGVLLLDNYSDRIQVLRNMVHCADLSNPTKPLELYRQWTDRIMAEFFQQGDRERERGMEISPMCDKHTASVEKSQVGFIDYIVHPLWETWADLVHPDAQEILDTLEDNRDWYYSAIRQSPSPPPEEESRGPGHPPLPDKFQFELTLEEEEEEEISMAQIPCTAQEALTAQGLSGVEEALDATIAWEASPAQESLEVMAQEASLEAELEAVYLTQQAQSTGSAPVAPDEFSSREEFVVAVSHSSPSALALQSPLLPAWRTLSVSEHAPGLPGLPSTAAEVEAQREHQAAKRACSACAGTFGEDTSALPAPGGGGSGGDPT
Prostaglandin G/H synthase 1, sequence (P23219 whole entry): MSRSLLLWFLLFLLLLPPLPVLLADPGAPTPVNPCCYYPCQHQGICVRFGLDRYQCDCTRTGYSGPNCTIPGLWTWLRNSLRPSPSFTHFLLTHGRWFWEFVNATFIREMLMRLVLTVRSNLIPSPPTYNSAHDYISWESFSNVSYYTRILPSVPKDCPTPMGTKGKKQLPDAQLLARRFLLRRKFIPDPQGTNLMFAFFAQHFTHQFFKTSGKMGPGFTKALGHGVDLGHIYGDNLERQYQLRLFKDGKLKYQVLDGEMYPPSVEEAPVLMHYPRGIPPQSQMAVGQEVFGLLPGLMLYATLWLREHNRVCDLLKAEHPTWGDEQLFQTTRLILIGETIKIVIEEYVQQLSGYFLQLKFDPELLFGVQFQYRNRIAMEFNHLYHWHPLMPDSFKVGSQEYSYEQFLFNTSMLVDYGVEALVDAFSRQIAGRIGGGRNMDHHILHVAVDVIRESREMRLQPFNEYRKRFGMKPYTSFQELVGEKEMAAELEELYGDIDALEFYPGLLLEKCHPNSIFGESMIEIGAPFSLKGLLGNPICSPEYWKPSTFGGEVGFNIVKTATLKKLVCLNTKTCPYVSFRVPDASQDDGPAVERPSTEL
Mu-type opioid receptor, sequence (P35372 whole entry): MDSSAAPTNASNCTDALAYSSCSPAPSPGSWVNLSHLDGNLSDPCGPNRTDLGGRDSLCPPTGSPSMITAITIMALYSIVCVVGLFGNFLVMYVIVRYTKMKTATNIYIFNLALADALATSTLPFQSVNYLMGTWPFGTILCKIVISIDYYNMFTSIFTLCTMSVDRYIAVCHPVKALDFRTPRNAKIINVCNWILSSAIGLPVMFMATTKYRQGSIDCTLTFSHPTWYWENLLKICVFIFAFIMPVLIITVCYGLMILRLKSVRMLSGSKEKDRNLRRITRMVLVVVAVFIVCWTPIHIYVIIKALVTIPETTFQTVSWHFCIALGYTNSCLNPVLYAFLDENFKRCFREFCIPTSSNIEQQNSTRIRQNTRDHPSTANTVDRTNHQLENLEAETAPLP
D(1A) dopamine receptor, sequence (P21728 whole entry): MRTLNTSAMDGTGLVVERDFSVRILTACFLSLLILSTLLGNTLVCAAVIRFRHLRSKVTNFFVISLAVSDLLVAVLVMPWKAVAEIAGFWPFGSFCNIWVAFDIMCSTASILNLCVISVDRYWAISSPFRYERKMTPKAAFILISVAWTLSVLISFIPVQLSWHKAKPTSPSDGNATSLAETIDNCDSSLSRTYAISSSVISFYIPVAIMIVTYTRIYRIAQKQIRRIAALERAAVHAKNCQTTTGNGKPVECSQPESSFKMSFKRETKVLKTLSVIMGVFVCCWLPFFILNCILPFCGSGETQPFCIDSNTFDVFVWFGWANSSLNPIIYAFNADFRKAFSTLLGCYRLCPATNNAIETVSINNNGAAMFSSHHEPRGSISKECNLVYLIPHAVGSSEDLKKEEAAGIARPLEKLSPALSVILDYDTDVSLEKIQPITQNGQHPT

For `C[C@@H](O)[C@H]1C(=O)N2C(C(=O)O)=C(S[C@@H]3CN[C@H](C(=O)Nc4cccc(C(=O)O)c4)C3)[C@H](C)[C@H]12`, the concentration at half-maximal activity (AC50) in experiment [1] is over 30 µM; in experiment [2] it was over 30 µM; in [3], over 30 µM; in experiment [4] it was over 30 µM; in experiment [5], 1.62 µM; in experiment [6], over 30 µM. Besides, the half-maximal activity concentration (AC50) in experiment [7] is 19.9 µM; in experiment [8] it was over 30 µM.

In the case of `Cc1ccc2c([nH]c(=O)c3c(=O)cc(C(=O)OCCC(C)C)oc32)c1C`, the concentration at half-maximal activity (AC50) in experiment [9] is over 30 µM; in experiment [10] it was over 30 µM; in [1], 11.8 µM; in experiment [2] it was over 30 µM; in [3], over 30 µM; in [4], over 30 µM. For the same compound, the AC50 in experiment [5] was over 30 µM; in experiment [6], over 30 µM; in experiment [7] it was 21.3 µM; in experiment [8], over 30 µM.

With `COC(=O)N[C@H](C(=O)N1CC2(CC2)C[C@H]1c1ncc(-c2ccc3c(c2)C(F)(F)c2cc(-c4ccc5nc([C@@H]6[C@H]7CC[C@H](C7)N6C(=O)[C@@H](NC(=O)OC)C(C)C)[nH]c5c4)ccc2-3)[nH]1)C(C)C`, the AC50 in [9], in [10], in [1], in [2], in experiment [3] and in [4] was over 30 µM throughout. Moreover, the AC50 is over 30 µM in [5], over 10 µM in [6], over 30 µM in experiment [7] and over 30 µM in [8].

Turning to `N[C@@H](Cc1ccc(N(CCCl)CCCl)cc1)C(=O)O`, the AC50 in [9] is over 30 µM; in experiment [10] it was over 30 µM; in [1] it was 13.6 µM; in experiment [2], over 30 µM; in experiment [3] it was over 30 µM; in [4], 20.6 µM. The AC50 in experiment [5] was over 30 µM; in experiment [6], over 30 µM; in experiment [7] it was 6.82 µM; in [8], over 30 µM.

As to `CC(=O)OC1CN2CCC1CC2` (configuration not stated) [ACECLIDINE], the AC50 in [2], in experiment [3], in experiment [4], in experiment [5], in [6] and in experiment [7] was over 30 µM throughout. Moreover, in experiment [8], the AC50 was over 30 µM.

Regarding `CC1=C(/C=C/C(C)=C\C=C\C(C)=C\C(=O)O)C(C)(C)CCC1` [ALITRETINOIN], the half-maximal activity concentration (AC50) in experiment [9], in experiment [10], in experiment [1], in experiment [2], in experiment [3] and in experiment [4] was over 30 µM in each case. For the same compound, the concentration at half-maximal activity (AC50) in experiment [5], in [6] and in experiment [8] was over 30 µM each time.

On to `CC(=O)Nc1ccc(/C=N/NC(N)=S)cc1` [AMITHIOZONE], for which the concentration at half-maximal activity (AC50) in experiment [1], in experiment [2], in [3], in experiment [4], in experiment [5] and in experiment [6] was over 30 µM in each case. Moreover, the AC50 in [7] and in experiment [8] was over 30 µM each time.

Take `O=NN(CCCl)C(=O)NCCCl` [CARMUSTINE]: the half-maximal activity concentration (AC50) in experiment [9], in experiment [10], in [1], in [2], in [3] and in experiment [4] was over 30 µM throughout.

With `CC(NCCC(c1ccccc1)c1ccccc1)c1ccccc1` (configuration not stated) [FENDILINE], the AC50 in experiment [9] was 25.8 µM; in [1], 6.17 µM; in experiment [2], 21.7 µM; in experiment [3] it was over 30 µM; in [4] it was 0.721 µM; in experiment [5] it was over 30 µM. In addition, the values for the AC50 in experiment [6], in [7] and in experiment [8] were over 30 µM, over 30 µM and 20.7 µM, respectively.

Consider `CC1=C(/C=C/C(C)=C/C=C/C(C)=C\C(=O)O)C(C)(C)CCC1` [ISOTRETINOIN], for which the AC50 in [9], in [10], in experiment [1], in experiment [2], in experiment [3] and in experiment [4] was over 30 µM in each case. For the same compound, the half-maximal activity concentration (AC50) in experiment [5], in [6] and in experiment [8] was over 30 µM in each case.

Regarding `CSCC[C@H](N)C(=O)O` [METHIONINE], the concentration at half-maximal activity (AC50) in experiment [1], in [2], in experiment [3], in experiment [4], in experiment [5] and in experiment [6] was over 30 µM each time. The half-maximal activity concentration (AC50) in experiment [7] and in experiment [8] was over 30 µM in each case.

Consider `OC(CN1CCCCC1)c1cc(-c2ccccc2)on1` (configuration not stated) [PERISOXAL], for which the concentration at half-maximal activity (AC50) in [1] is 16.9 µM; in experiment [2], 3.82 µM; in experiment [3] it was 15.8 µM; in [4], 27.4 µM; in experiment [5], over 30 µM; in experiment [6], over 30 µM. For the same compound, the AC50 in experiment [7] and in [8] was over 30 µM throughout.

On to `Cc1ccc(O)c([C@H](CCN(C(C)C)C(C)C)c2ccccc2)c1` [TOLTERODINE], for which the half-maximal activity concentration (AC50) in experiment [9] was over 30 µM; in experiment [10], 24.7 µM; in [2], over 30 µM; in experiment [3] it was over 30 µM; in experiment [4] it was over 30 µM.

In the case of `COc1cc(C[C@@H]2NCCc3cc(O)c(O)cc32)cc(OC)c1OC` [TRETOQUINOL], the AC50 is over 30 µM in experiment [9]; over 30 µM in [10]; over 30 µM in experiment [1]; 4.72 µM in experiment [2]; over 30 µM in [3]; 15.5 µM in experiment [4]. Besides, the half-maximal activity concentration (AC50) in experiment [5] was over 30 µM; in experiment [6], over 30 µM; in experiment [7], 5.31 µM.

For `CC(CN(C)C)CN1c2ccccc2CCc2ccccc21` (configuration not stated) [TRIMIPRAMINE], the AC50 in [3] is over 30 µM; in experiment [4] it was 5.7 µM; in experiment [5], over 30 µM; in experiment [6], over 30 µM; in experiment [7] it was over 30 µM; in experiment [8], 9.64 µM.
